Data taken from patent publication US7425548B2, “Materials and methods for immune system stimulation” (Variety Chidren's Hospital, priority 2004, dated 2008).

Experiments:
RAW264.7 macrophages = test: Opsonized binding and phagocytosis of FITC-zymosan A bioparticles; assay type: cell-based, mouse; details: 37° C.
Description: Monocytes were incubated with RR1 at 37° C. for 1 hour followed by FITC-labeled zymosan A bioparticles for another 1 hour at 37° C. The cells were washed and intracellular fluorescence measured in a Coulter Elite Flow cytometer.
Opsonized binding and Phagocytosis. To determine the effect of RR1 and laminarin on opsonized binding and phagocytosis of zymosan A particles, RAW 264.7 cells were treated with RR1 or laminarin (0 and 500 μg/ml) in DMEM at 37° C. for 1 hour. This will ensure the release of opsonins and facilitate opsonic binding. The cells were washed with PBS twice and incubated with zymosan A-FITC bioparticles at a ratio of 25 particles/cell at 37° C. for 1 hour. The cells were suspended in PBS after removing the unbound zymosan particles by extensive washing with the medium, and the intracellular fluorescence analyzed in a Coulter Elite flow cytometer. The fluorescence intensity was expressed as percentage of control.

RAW 264.7 cells = test: RR1-induced TNF-α synthesis with and without CAPE, ELISA; assay type: cell-based, mouse; details: CAPE 10 μg/ml for 1 hour prior to RR1, all RR1 concentrations
Description: The cells were pre-incubated with 10 μg/ml CAPE for 1 hour in 0.5% FBS containing DMEM medium and replaced with medium containing RR1 at varying concentrations for 4 hour at 37° C. The medium was analyzed for secreted TNF-α using ELISA protocol.
RR1-induced TNF-α synthesis. RAW 264.7 cells (0.5×10^6/ml) were plated on 6-well plates with DMEM medium containing 0.5% FBS (starvation). Once the cells were attached, medium was replaced, RR1 was added at 0, 100, 500 and 1000 μg/ml doses and incubated at 37° C. for 24 hours. The medium was analyzed for the secreted TNF-α using the ELISA kit (BD BIOSCIENCES kit, San Jose, Calif.) based on the manufacturer's protocol.
To determine the effect of NF-κB inhibitor CAPE on TNF-α synthesis, RAW 264.7 cells were treated with 10 μg/ml of CAPE for 1 hour at 37° C. followed by treatment with RR1 (0-1000 μg/ml) overnight in the incubator. The secreted TNF-α in the medium was analyzed using ELISA (BD BIOSCIENCES, San Jose, Calif.).

Laminarin [reference compound]
inhibitory effect on opsonized binding and phagocytosis of zymosan A bioparticles (RAW264.7 macrophages; 500 μg/ml, 1 hour): absolute inhibitory effect
inhibition of zymosan bioparticle internalization (RAW264.7 macrophages; opsonized): about 90%

O=C(/C=C/c1ccc(O)c(O)c1)OCCc1ccccc1 [CAPE, caffeic acid phenethyl ester, reference compound]
effect on RR1-induced TNF-α synthesis (RAW 264.7 cells): completely inhibited
